Source: patent US20260130395A1, “Water Dispersible Botanical Compositions” (Aquila Black Limited, priority 2021, published 2026)

Assay: Stability of cannabinoid compounds and Vitamin E components in Beverage 1 (AB White) by LCMSMS
Format: physicochemical
[1] = AB White stored at 8° C., 570 days
[2] = AB White stored at 21-25° C., 570 days

CCCCCc1cc(O)c2c(c1)OC(C)(C)[C@@H]1CCC(C)=C[C@@H]21 [D9 THC, delta-9-tetrahydrocannabinol, reference compound]
Stability of Plant-Derived Cannabinoid Compounds in AB White, 8° C. (AB White stored at 8° C., 0 days): 12.2 µg/mL
Stability of Plant-Derived Cannabinoid Compounds in AB White, 8° C. (AB White stored at 8° C., 1 days): 12.20 µg/mL
Stability of Plant-Derived Cannabinoid Compounds in AB White, 8° C. (AB White stored at 8° C., 2 days): 11.91 µg/mL
Stability of Plant-Derived Cannabinoid Compounds in AB White, 8° C. (AB White stored at 8° C., 3 days): 12.25 µg/mL
Stability of Plant-Derived Cannabinoid Compounds in AB White, 8° C. (AB White stored at 8° C., 5 days): 12.11 µg/mL
Stability of Plant-Derived Cannabinoid Compounds in AB White, 8° C. (AB White stored at 8° C., 8 days): 11.83 µg/mL
Stability of Plant-Derived Cannabinoid Compounds in AB White, 8° C. (AB White stored at 8° C., 9 days): 12.14 µg/mL
Stability of Plant-Derived Cannabinoid Compounds in AB White, 8° C. (AB White stored at 8° C., 10 days): 12.07 µg/mL
Stability of Plant-Derived Cannabinoid Compounds in AB White, 8° C. (AB White stored at 8° C., 11 days): 11.83 µg/mL
Stability of Plant-Derived Cannabinoid Compounds in AB White, 8° C. (AB White stored at 8° C., 12 days): 11.88 µg/mL
Stability of Plant-Derived Cannabinoid Compounds in AB White, 8° C. (AB White stored at 8° C., 15 days): 12.08 µg/mL
Stability of Plant-Derived Cannabinoid Compounds in AB White, 8° C. (AB White stored at 8° C., 16 days): 12.18 µg/mL
Stability of Plant-Derived Cannabinoid Compounds in AB White, 8° C. (AB White stored at 8° C., 17 days): 12.05 µg/mL
Stability of Plant-Derived Cannabinoid Compounds in AB White, 8° C. (AB White stored at 8° C., 18 days): 12.00 µg/mL
Stability of Plant-Derived Cannabinoid Compounds in AB White, 8° C. (AB White stored at 8° C., 19 days): 12.11 µg/mL
Stability of Plant-Derived Cannabinoid Compounds in AB White, 8° C. (AB White stored at 8° C., 22 days): 11.97 µg/mL
Stability of Plant-Derived Cannabinoid Compounds in AB White, 8° C. (AB White stored at 8° C., 23 days): 12.03 µg/mL
Stability of Plant-Derived Cannabinoid Compounds in AB White, 8° C. (AB White stored at 8° C., 24 days): 11.87 µg/mL
Stability of Plant-Derived Cannabinoid Compounds in AB White, 8° C. (AB White stored at 8° C., 25 days): 11.99 µg/mL
Stability of Plant-Derived Cannabinoid Compounds in AB White, 8° C. (AB White stored at 8° C., 26 days): 11.97 µg/mL
Stability of Plant-Derived Cannabinoid Compounds in AB White, 8° C. (AB White stored at 8° C., 29 days): 12.25 µg/mL
Stability of Plant-Derived Cannabinoid Compounds in AB White, 8° C. (AB White stored at 8° C., 30 days): 12.05 µg/mL
Stability of Plant-Derived Cannabinoid Compounds in AB White, 8° C. (AB White stored at 8° C., 60 days): 11.77 µg/mL
Stability of Plant-Derived Cannabinoid Compounds in AB White, 8° C. (AB White stored at 8° C., 90 days): 11.92 µg/mL
Stability of Plant-Derived Cannabinoid Compounds in AB White, 8° C. (AB White stored at 8° C., 120 days): 11.79 µg/mL
Stability of Plant-Derived Cannabinoid Compounds in AB White, 8° C. (AB White stored at 8° C., 150 days): 12.07 µg/mL
Stability of Plant-Derived Cannabinoid Compounds in AB White, 8° C. (AB White stored at 8° C., 180 days): 11.66 µg/mL
Stability of Plant-Derived Cannabinoid Compounds in AB White, 8° C. (AB White stored at 8° C., 210 days): 11.79 µg/mL
Stability of Plant-Derived Cannabinoid Compounds in AB White, 8° C. (AB White stored at 8° C., 240 days): 11.70 µg/mL
Stability of Plant-Derived Cannabinoid Compounds in AB White, 8° C. (AB White stored at 8° C., 270 days): 11.98 µg/mL
Stability of Plant-Derived Cannabinoid Compounds in AB White, 8° C. (AB White stored at 8° C., 300 days): 11.70 µg/mL
Stability of Plant-Derived Cannabinoid Compounds in AB White, 8° C. (AB White stored at 8° C., 330 days): 11.68 µg/mL
Stability of Plant-Derived Cannabinoid Compounds in AB White, 8° C. (AB White stored at 8° C., 360 days): 11.88 µg/mL
Stability of Plant-Derived Cannabinoid Compounds in AB White, 8° C. (AB White stored at 8° C., 390 days): 11.85 µg/mL
Stability of Plant-Derived Cannabinoid Compounds in AB White, 8° C. (AB White stored at 8° C., 420 days): 11.77 µg/mL
Stability of Plant-Derived Cannabinoid Compounds in AB White, 8° C. (AB White stored at 8° C., 450 days): 11.80 µg/mL
Stability of Plant-Derived Cannabinoid Compounds in AB White, 8° C. (AB White stored at 8° C., 480 days): 11.60 µg/mL
Stability of Plant-Derived Cannabinoid Compounds in AB White, 8° C. (AB White stored at 8° C., 510 days): 11.33 µg/mL
Stability of Plant-Derived Cannabinoid Compounds in AB White, 8° C. (AB White stored at 8° C., 540 days): 11.27 µg/mL
Stability of Plant-Derived Cannabinoid Compounds in AB White, 8° C. [1]: 11.21 µg/mL
stability over the entire period (in words) [1]: high degree of stability
Stability of Plant-Derived Cannabinoid Compounds in AB White, 21-25° C. (AB White stored at 21-25° C., 0 days): 12.2 µg/mL
Stability of Plant-Derived Cannabinoid Compounds in AB White, 21-25° C. (AB White stored at 21-25° C., 1 days): 11.8 µg/mL
Stability of Plant-Derived Cannabinoid Compounds in AB White, 21-25° C. (AB White stored at 21-25° C., 2 days): 12.0 µg/mL
Stability of Plant-Derived Cannabinoid Compounds in AB White, 21-25° C. (AB White stored at 21-25° C., 3 days): 11.9 µg/mL
Stability of Plant-Derived Cannabinoid Compounds in AB White, 21-25° C. (AB White stored at 21-25° C., 5 days): 12.1 µg/mL
Stability of Plant-Derived Cannabinoid Compounds in AB White, 21-25° C. (AB White stored at 21-25° C., 8 days): 12.3 µg/mL
Stability of Plant-Derived Cannabinoid Compounds in AB White, 21-25° C. (AB White stored at 21-25° C., 9 days): 11.8 µg/mL
Stability of Plant-Derived Cannabinoid Compounds in AB White, 21-25° C. (AB White stored at 21-25° C., 10 days): 11.7 µg/mL
Stability of Plant-Derived Cannabinoid Compounds in AB White, 21-25° C. (AB White stored at 21-25° C., 11 days): 12.1 µg/mL
Stability of Plant-Derived Cannabinoid Compounds in AB White, 21-25° C. (AB White stored at 21-25° C., 12 days): 11.9 µg/mL
Stability of Plant-Derived Cannabinoid Compounds in AB White, 21-25° C. (AB White stored at 21-25° C., 15 days): 12.1 µg/mL
Stability of Plant-Derived Cannabinoid Compounds in AB White, 21-25° C. (AB White stored at 21-25° C., 16 days): 12.1 µg/mL
Stability of Plant-Derived Cannabinoid Compounds in AB White, 21-25° C. (AB White stored at 21-25° C., 17 days): 11.9 µg/mL
Stability of Plant-Derived Cannabinoid Compounds in AB White, 21-25° C. (AB White stored at 21-25° C., 18 days): 11.8 µg/mL
Stability of Plant-Derived Cannabinoid Compounds in AB White, 21-25° C. (AB White stored at 21-25° C., 19 days): 12.3 µg/mL
Stability of Plant-Derived Cannabinoid Compounds in AB White, 21-25° C. (AB White stored at 21-25° C., 22 days): 11.9 µg/mL
Stability of Plant-Derived Cannabinoid Compounds in AB White, 21-25° C. (AB White stored at 21-25° C., 23 days): 12.0 µg/mL
Stability of Plant-Derived Cannabinoid Compounds in AB White, 21-25° C. (AB White stored at 21-25° C., 24 days): 12.1 µg/mL
Stability of Plant-Derived Cannabinoid Compounds in AB White, 21-25° C. (AB White stored at 21-25° C., 25 days): 12.3 µg/mL
Stability of Plant-Derived Cannabinoid Compounds in AB White, 21-25° C. (AB White stored at 21-25° C., 26 days): 12.1 µg/mL
Stability of Plant-Derived Cannabinoid Compounds in AB White, 21-25° C. (AB White stored at 21-25° C., 29 days): 11.9 µg/mL
Stability of Plant-Derived Cannabinoid Compounds in AB White, 21-25° C. (AB White stored at 21-25° C., 30 days): 11.9 µg/mL
Stability of Plant-Derived Cannabinoid Compounds in AB White, 21-25° C. (AB White stored at 21-25° C., 60 days): 11.9 µg/mL
Stability of Plant-Derived Cannabinoid Compounds in AB White, 21-25° C. (AB White stored at 21-25° C., 90 days): 12.0 µg/mL
Stability of Plant-Derived Cannabinoid Compounds in AB White, 21-25° C. (AB White stored at 21-25° C., 120 days): 11.7 µg/mL
Stability of Plant-Derived Cannabinoid Compounds in AB White, 21-25° C. (AB White stored at 21-25° C., 150 days): 11.7 µg/mL
Stability of Plant-Derived Cannabinoid Compounds in AB White, 21-25° C. (AB White stored at 21-25° C., 180 days): 11.9 µg/mL
Stability of Plant-Derived Cannabinoid Compounds in AB White, 21-25° C. (AB White stored at 21-25° C., 210 days): 11.4 µg/mL
Stability of Plant-Derived Cannabinoid Compounds in AB White, 21-25° C. (AB White stored at 21-25° C., 240 days): 11.7 µg/mL
Stability of Plant-Derived Cannabinoid Compounds in AB White, 21-25° C. (AB White stored at 21-25° C., 270 days): 11.9 µg/mL
Stability of Plant-Derived Cannabinoid Compounds in AB White, 21-25° C. (AB White stored at 21-25° C., 300 days): 12.0 µg/mL
Stability of Plant-Derived Cannabinoid Compounds in AB White, 21-25° C. (AB White stored at 21-25° C., 330 days): 11.4 µg/mL
Stability of Plant-Derived Cannabinoid Compounds in AB White, 21-25° C. (AB White stored at 21-25° C., 360 days): 11.7 µg/mL
Stability of Plant-Derived Cannabinoid Compounds in AB White, 21-25° C. (AB White stored at 21-25° C., 390 days): 11.4 µg/mL
Stability of Plant-Derived Cannabinoid Compounds in AB White, 21-25° C. (AB White stored at 21-25° C., 420 days): 11.7 µg/mL
Stability of Plant-Derived Cannabinoid Compounds in AB White, 21-25° C. (AB White stored at 21-25° C., 450 days): 11.7 µg/mL
Stability of Plant-Derived Cannabinoid Compounds in AB White, 21-25° C. (AB White stored at 21-25° C., 480 days): 11.2 µg/mL
Stability of Plant-Derived Cannabinoid Compounds in AB White, 21-25° C. (AB White stored at 21-25° C., 510 days): 11.2 µg/mL
Stability of Plant-Derived Cannabinoid Compounds in AB White, 21-25° C. (AB White stored at 21-25° C., 540 days): 11.2 µg/mL
Stability of Plant-Derived Cannabinoid Compounds in AB White, 21-25° C. [2]: 11.2 µg/mL
stability over the entire period (in words) [2]: high degree of stability
